Laboratory results reported in patent publication US9561231B2 (AbbVie Inc., priority 2012, dated 2017).

Key:
Ramos = experiment: Proliferation panel assay: Ramos; assay type: cell-based; conditions: Homo sapiens, 120 h; Ramos (NHL); 5 days, Cell Titer Glo; read-out: Cellular Proliferation EC50
MDAMB453 = experiment: Proliferation panel assay: MDAMB453; assay type: cell-based; conditions: Homo sapiens, MDA-MB-453, 120 h; MDAMB453 (Breast); 5 days, Cell Titer Glo; read-out: Cellular Proliferation EC50
DLD-1 = experiment: Proliferation panel assay: DLD-1; assay type: cell-based; conditions: Homo sapiens, 120 h; DLD-1 (Colon); 5 days, Cell Titer Glo; read-out: Cellular Proliferation EC50
D54MG = experiment: Proliferation panel assay: D54MG; assay type: cell-based; conditions: 120 h; D54MG (Glioblastoma); 5 days, Cell Titer Glo; read-out: Cellular Proliferation EC50
NCI-H929 = experiment: Proliferation panel assay: NCI-H929; assay type: cell-based; conditions: Homo sapiens, 120 h; NCI-H929 (Multiple Myeloma); 5 days, Cell Titer Glo; read-out: Cellular Proliferation EC50
MDAMB231 = experiment: Proliferation panel assay: MDAMB231; assay type: cell-based; conditions: Homo sapiens, MDA-MB-231, 120 h; MDAMB231 (Breast); 5 days, Cell Titer Glo; read-out: Cellular Proliferation EC50
Ly18 = experiment: Proliferation panel assay: Ly18; assay type: cell-based; conditions: 120 h; Ly18 (NHL); 5 days, Cell Titer Glo; read-out: Cellular Proliferation EC50
HPAC = experiment: Proliferation panel assay: HPAC; assay type: cell-based; conditions: Homo sapiens, 120 h; HPAC (Pancreas); 5 days, Cell Titer Glo; read-out: Cellular Proliferation EC50
FaDu = experiment: Proliferation panel assay: FaDu; assay type: cell-based; conditions: Homo sapiens, 120 h; FaDu (Head & Neck); 5 days, Cell Titer Glo; read-out: Cellular Proliferation EC50
[1] = system: LPS induced IL-6 production; experiment: LPS (lipopolysaccharide) induced IL-6 production mouse assay; conditions: 30 mg/kg oral, 1 h before LPS 2.5 mg/kg i.p.; serum IL-6 2 h after LPS; p<0.05
Procedure: Severe combined immunodeficient female mice (5 per group) received an intraperitoneal challenge of lipopolysaccharide (2.5 mg/kg, L2630 E. coli 0111:B4) one hour after oral administration of compounds. Mice were euthanized 2 hours after lipopolysaccharide injection, blood was removed by cardiac puncture, and then the serum harvested from the blood samples was frozen at −80° C. On the day of the assay the serum samples were brought to room temperature and then diluted 1:20 in phosphate-buffered saline containing 2% bovine serum albumin. Interleukin-6 measurements were performed using a cytokine assay from Meso Scale Discovery (Gaithersburg, Md.) for mouse serum analysis according to the manufacturer's protocol and read on a SECTOR Imager 6000 (Meso Scale Discovery, Gaithersburg, Md.) instrument. Statistical analysis was performed using Prism software (version 5.0) incorporating Dunnett's one way ANOVA. The IL-6 mean and standard deviation of the group of vehicle treated animals were compared with the IL-6 mean and standard deviation of the group treated with drug. A p value <0.05 means that there is less than a 5% probability that the mean values in the two groups are equal.

Q: Which EC50 (Ramos) does the source give for `Cn1cc(-c2cc(NS(C)(=O)=O)ccc2Oc2ccccc2)ccc1=O` [Example 224, N-[3-(1-methyl-6-oxo-1,6-dihydropyridin-3-yl)-4-phenoxyphenyl]methanesulfonamide] here?
A: 370 nM

Q: What about the EC50 (MDAMB453) of the same molecule?
A: 320 nM

Q: And the EC50 (DLD-1)?
A: 850 nM

Q: And the EC50 (D54MG)?
A: 423 nM

Q: And the EC50 (NCI-H929)?
A: 109 nM

Q: And the EC50 (MDAMB231)?
A: 720 nM

Q: What about the EC50 (Ly18) of the same molecule?
A: 520 nM

Q: What about the EC50 (HPAC) of the same molecule?
A: 380 nM

Q: And the EC50 (FaDu)?
A: 280 nM

Q: With `Cc1cc(-c2cc(NS(C)(=O)=O)ccc2Oc2ccccc2)c[nH]c1=O` [Example 261, N-[3-(5-methyl-6-oxo-1,6-dihydropyridin-3-yl)-4-phenoxyphenyl]methanesulfonamide] as the molecule, how does the EC50 (Ramos) read?
A: 390 nM

Q: And the EC50 (MDAMB453)?
A: 340 nM

Q: And the “Inhibition of LPS induced IL-6 production, % inhibition” value [1]?
A: 42.2 @ 30 mg/kg %

Q: What about the EC50 (DLD-1) of the same molecule?
A: 620 nM

Q: What about the EC50 (D54MG) of the same molecule?
A: 338 nM

Q: What about the EC50 (NCI-H929) of the same molecule?
A: 98 nM

Q: And the EC50 (MDAMB231)?
A: 460 nM

Q: And the EC50 (Ly18)?
A: 510 nM

Q: What about the EC50 (HPAC) of the same molecule?
A: 500 nM

Q: What about the EC50 (FaDu) of the same molecule?
A: 270 nM
